Values of other authors as cited in patent EP4219603A1, “A METHOD FOR PURIFICATION OF ORGANIC WATER-SOLUBLE POLYMERS FROM HYDROPHOBIC CONTAMINANTS” (Ustav experimentálnej fyziky SAV, v.v.i., priority 2022, dated 2023).
Where two headings read alike, the source gives them in different places.

Details: logarithm of the octanol/water partition coefficient
[1] = contaminants from Examples 1 to 9 identified in GC-MS HS-SPME elugrams
[2] = model contaminants added to the polymer

In the case of CCCCC(CC)COC(=O)c1ccccc1 (stereo not drawn) [2-ethylhexyl benzoate], the “log P” value [1] is given as 5.73.
For CCCCCCCCCCCC(C)=O [2-tridecanone], the “log P” value [1] is listed as 5.16.
In the case of c1ccc(-c2ccccc2)cc1 [bifenyl], the “log P” value [1] is listed as 4.00.
For CC(C)c1ccc2c(c1)CC[C@H]1[C@](C)(CO)CCC[C@]21C [dehydroabietol], the “log P” value [1] is listed as 6.35.
In the case of CC(C)COC(=O)c1ccccc1C(=O)OCC(C)C [di-isobutyl phtalate], the “log P” value [1] is listed as 4.46.
In the case of Clc1cc(Cl)cc(-c2ccccc2)c1 [dichlorobiphenyl (PCB 14)], the “log P” value [1] is given as 5.41 and the “log P” value [2] is given as 5.41.
In the case of CCCCCCCCCCCC [dodecane], the “log P” value [1] is listed as 7.13.
For C[C@]12CC[C@H]3C(=CCc4cc(OC(=O)c5ccccc5)ccc43)[C@@H]1CCC2=O [equilin benzoate], the “log P” value [1] is given as 5.63.
For CCCCCCCCCCCC(=O)OCC [ethyl dodecanoate], the “log P” value [1] is given as 6.00 and the “log P” value [2] is given as 6.00.
In the case of CCCCCCCCCCCCCCCC [hexadecane], the “log P” value [1] is given as 9.26.
For CCCCCCCCCCCC(=O)OC(C)C [isopropyl dodecanoate], the “log P” value [1] is given as 6.37.
For CCCCCCCCCCCCCC(=O)OC(C)C [isopropyl tetradecanoate], the “log P” value [1] is listed as 7.43.
For CCCCCCCCCCCCCCCCCC [octadecane], the “log P” value [1] is given as 10.32 and the “log P” value [2] is given as 10.32.
For CCCCCCCCCCCCCC [tetradecane], the “log P” value [1] is listed as 8.19.
For CCCCCCCCCCCCC [tridecane], the “log P” value [1] is given as 7.66.
